Assay results taken from patent publication US9493468B2, “Antifungal 5,6-dihydro-4H-pyrrolo[1,2-a][1,4]benzo-diazepines and 6H-pyrrolo[1,2-a][1,4]benzodiazepines substituted with heterocyclic derivatives” (Janssen Pharmaceutica NV, priority 2011, dated 2016).

Key:
Format in all cases: cell-based
[1] = test system: Trichophyton mentagrophytes; assay: Antifungal activity in vitro, resazurin growth inhibition: Trichophyton mentagrophytes (B70554)
How it was run: (§1)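 Fungi (10^3 cfu/well) grown in RPMI-1640 with L-glutamine, 2% glucose, MOPS pH 7.0, against 2- or 4-fold compound dilutions up to 64 μM. Dermatophytes incubated one week or more at 27° C. Growth inhibition read fluorimetrically (λex 550, λem 590 nm) after resazurin addition and further incubation.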

Microsporum canis = assay: Antifungal activity in vitro, resazurin growth inhibition: Microsporum canis (B68128)
How it was run: as §1

Aspergillus fumigatus = assay: Antifungal activity in vitro, resazurin growth inhibition: Aspergillus fumigatus (B42928)
How it was run: as §1

Candida parapsilosis = assay: Antifungal activity in vitro, resazurin growth inhibition: Candida parapsilosis (B66126)
How it was run: as §1

Trichophyton rubrum = assay: Antifungal activity in vitro, resazurin growth inhibition: Trichophyton rubrum (B68183)
How it was run: as §1

Cryptococcus neoformans = assay: Antifungal activity in vitro, resazurin growth inhibition: Cryptococcus neoformans (B66663)
How it was run: as §1

Sporothrix schenkii = assay: Antifungal activity in vitro, resazurin growth inhibition: Sporothrix schenkii (B62482)
How it was run: as §1

| Compound | Inf. G: Trichophyton mentagrophytes B70554, pIC50 [1] | Inf. B: Microsporum canis B68128, pIC50 (Microsporum canis) | Inf. E: Aspergillus fumigatus B42928, pIC50 (Aspergillus fumigatus) | Inf. D: Candida parapsilosis B66126, pIC50 (Candida parapsilosis) | Inf. C: Trichophyton rubrum B68183, pIC50 (Trichophyton rubrum) | Inf. F: Cryptococcus neoformans B66663, pIC50 (Cryptococcus neoformans) | Inf. A: Sporothrix schenkii B62482, pIC50 (Sporothrix schenkii) |
| --- | --- | --- | --- | --- | --- | --- | --- |
| Cc1ccc2cc(C3NCc4c(C)cccc4-n4cccc43)oc2c1.Cl (racemic) [Compound 40] | 4.47 | 5.52 | <4.19 | <4.19 | 4.77 | <4.19 | <4.19 |
| Cl.Clc1cc(Cl)c2c(c1)-n1cccc1C(c1cc3ccccc3s1)NC2 (racemic) [Compound 56] | 4.48 | <4.19 | <4.19 | <4.19 | 5.71 | <4.19 | <4.19 |
| Br.Clc1cccc2c1-n1cccc1C(c1ccncc1)NC2 (racemic) [Compound 24] | <4.19 | 4.57 | <4.19 | <4.19 | 4.74 | <4.19 | <4.19 |
| COc1cccc2cc(C3NCc4ccc(Cl)cc4-n4cccc43)oc12.Cl (racemic) [Compound 42] | 4.49 | 4.19 | <4.19 | <4.19 | 5.06 | 4.89 | <4.19 |
| Clc1cccc2c1CN=C(c1ccc3scc(Cl)c3c1)c1cccn1-2 [Compound 177] | <4.19 | <4.19 | <4.19 | <4.19 | <4.19 | 5.73 | <4.19 |
| Fc1cccc2c1CN=C(c1ccc3sc(C(F)(F)F)nc3c1)c1cccn1-2 [Compound 192] | 5.03 | <4.19 | <4.19 | <4.19 | 4.29 | 4.81 | <4.19 |
| COc1ccc2oc(C3=NCc4ccc(Cl)cc4-n4cccc43)cc2c1 [Compound 147] | <4.19 | 5.66 | <4.19 | <4.19 | 5.35 | <4.19 | <4.19 |
| Cc1ccc2cc(C3NCc4c(Cl)cccc4-n4cccc43)oc2c1.Cl (racemic) [Compound 39] | 5.15 | 5.52 | 5.52 | <4.19 | 5.15 | <4.19 | 5.52 |
| CCc1cc(C2=NCc3c(Cl)cccc3-n3cccc32)on1 [Compound 63] | 5.58 | <4.19 | <4.19 | <4.19 | 5.72 | <4.19 | <4.19 |
| Cc1nc2ccc(C3=NCc4c(Cl)cccc4-n4cccc43)cc2o1 [Compound 162] | 5.21 | 5.23 | 4.36 | <4.19 | 5.61 | 4.49 | 4.22 |
| Fc1cc(F)c2c(c1)-n1cccc1C(c1cnc(Cl)c(Cl)c1)=NC2 [Compound 81] | <4.19 | <4.19 | 5.58 | 4.19 | <4.19 | <4.19 | 5.65 |
| Cl.FC(F)(F)c1ncc(C2NCc3c(Cl)cccc3-n3cccc32)cn1 (racemic) [Compound 26] | 4.44 | 4.92 | <4.19 | <4.19 | 5.10 | <4.19 | <4.19 |
| Cc1ccc2cc(C3NCc4ccccc4-n4cccc43)oc2c1.Cl (racemic) [Compound 38] | 5.22 | 5.15 | 4.41 | <4.19 | 5.22 | <4.19 | 4.40 |
| COc1cccc2cc(C3NCc4c(Cl)cc(Cl)cc4-n4cccc43)oc12.Cl (racemic) [Compound 43] | <4.19 | 4.52 | <4.19 | <4.19 | 4.30 | <4.19 | <4.19 |
| Clc1cc2cc(C3=NCc4c(Cl)cccc4-n4cccc43)ccc2o1 [Compound 155] | 6.82 | 6.82 | 5.88 | 4.94 | 7.15 | 5.81 | 5.66 |
| Cl.Fc1ccc2oc(C3NCc4c(Cl)cc(Cl)cc4-n4cccc43)cc2c1 (racemic) [Compound 49] | <4.19 | 4.82 | <4.19 | <4.19 | 5.28 | <4.19 | <4.80 |
| Cl.Clc1ccc2oc(C3NCc4c(Cl)cccc4-n4cccc43)cc2c1 (racemic) [Compound 35] | 5.70 | 5.70 | <4.19 | <4.19 | 6.07 | <4.19 | <4.19 |
| Fc1cccc2c1CN=C(c1ccc3occ(Cl)c3c1)c1cccn1-2 [Compound 153] | <4.19 | <4.19 | <4.19 | 5.00 | <4.19 | 5.16 | <4.19 |
| Cc1ccc2cc(C3=NCc4c(F)cc(F)cc4-n4cccc43)ccc2n1 [Compound 114] | <4.19 | <4.19 | <4.19 | <4.19 | 5.75 | <4.19 | <4.19 |
